Consider 3 compounds from article PMC7580251 (Clinical cancer research : an official journal of the …, 2017).

In one data set the test system is patients. The note with it: cited from earlier work.
Data set [1] concerns poly(ADP-ribose) (PAR) levels in peripheral blood mononuclear cells. The data set is described as follows: PAR levels in PBMCs by sandwich ELISA. Type of data set: in vivo, human. The note with it: topotecan alone, Day 30 (Cycle 2 Day 2); of 20 quantifiable pairs.
Data set [2] has as its system recurrent, platinum-resistant ovarian cancer. The note with it: cited from earlier work.
Data set [3] is described as follows: Plasma pharmacokinetics of veliparib and topotecan. Type of data set: in vivo, human. The note with it: for half-life / AUC(0-t): human, plasma; for AUC(0-t): oral.
Setting [4] is: daily 1-hour infusion for 5 consecutive days, recurrent platinum-resistant ovarian cancer.

In the case of `O=C(c1cc(Cc2n[nH]c(=O)c3ccccc23)ccc1F)N1CCN(C(=O)C2CC2)CC1` [olaparib], in the data set on patients (per dose, twice daily days 1–5, with irinotecan every two weeks), the “RP2D of the combination, olaparib dose” value is reported as 50 mg.
As a reminder, the half-life is the time needed for the level to fall by half in the phase considered. `CC[C@@]1(O)C(=O)OCc2c1cc1n(c2=O)Cc2cc3c(CN(C)C)c(O)ccc3nc2-1` [topotecan]: the “single-agent MTD” value with patients (weekly topotecan (days 2, 9 and 16)) is 4 mg/m^2. In addition, in data set [1], the “sample pairs with decreased PAR levels” value was 7, the “sample pairs with increased PAR levels” value is on record as 11 and the “sample pairs with unchanged PAR levels” value is given as 2. Besides, in data set [2] (setting [4]), the median overall survival is on record as 57 weeks and the overall response rate is 17%. Besides, in data set [2] (daily x 5 topotecan), the women with myelosuppression result is given as “up to 75%”. Further, the response rate in data set [2] (phase II, days 1, 8, 15 of a 28-day cycle, platinum refractory/resistant ovarian cancer) is 18%. The “grade 4 toxicities” value in data set [2] (phase II, days 1, 8, 15 of a 28-day cycle, myelosuppression mild) is recorded as “no grade 4 toxicities observed”. The same compound gave a half-life in data set [3] (iv) of 162 ± 36 min. The “plasma clearance, mean (± SD)” value in data set [3] (topotecan administered alone on Cycle 2, iv) was 10.1 ± 3.8 L/hr/m^2.
By AUC(0-t) is commonly meant the area under the concentration-time curve up to a stated or last time point. Read a high AUC(0-t) as more exposure. For the compound `C[C@]1(c2nc3c(C(N)=O)cccc3[nH]2)CCCN1` [veliparib], the “single agent MTD” value in the data set on patients (veliparib bid) is reported as 400 mg. For the same compound, the area under the curve AUC(0-t) was determined as 351 ± 69 ng·h/mL in data set [3] (10 mg) and 15000 ± 3090 ng·h/mL in data set [3] (300 mg). In data set [3] (po), the half-life was 366 ± 168 min.
